Data published in ChEMBL document CHEMBL1153875, “Synthesis of new dipyrrolo- and furopyrrolopyrazinones related to tripentones and their biological evaluation as potential kinases (CDKs1-5, GSK-3) inhibitors” (Eur J Med Chem, 2009).
pIC50: −log10 of the molar value.

Key:
[1] = molecular target: Glycogen synthase kinase-3 beta (Homo sapiens, UniProt P49841); assay: Inhibition of GSK3-beta
[2] = molecular target: Cyclin-dependent kinase 5 (Homo sapiens, UniProt Q00535); assay: Inhibition of CDK5
[3] = molecular target: Cyclin-dependent kinase 1/cyclin B1 (Homo sapiens, UniProt P06493); assay: Inhibition of CDK1/cyclin B; assay type: protein-complex assay
[4] = Inhibition of tubulin polymerization

Glycogen synthase kinase-3 beta, sequence (P49841 whole entry): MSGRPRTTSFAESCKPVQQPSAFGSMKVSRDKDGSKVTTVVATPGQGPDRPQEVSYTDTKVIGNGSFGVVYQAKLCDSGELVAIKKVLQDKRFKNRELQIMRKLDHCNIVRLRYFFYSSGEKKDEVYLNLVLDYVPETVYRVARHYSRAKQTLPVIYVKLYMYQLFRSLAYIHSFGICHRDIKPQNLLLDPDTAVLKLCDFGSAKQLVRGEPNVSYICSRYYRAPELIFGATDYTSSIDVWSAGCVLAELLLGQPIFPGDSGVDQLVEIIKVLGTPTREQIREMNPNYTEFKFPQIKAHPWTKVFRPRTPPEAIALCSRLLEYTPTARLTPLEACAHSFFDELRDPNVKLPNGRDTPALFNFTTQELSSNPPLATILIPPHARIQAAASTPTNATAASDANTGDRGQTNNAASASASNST
Cyclin-dependent kinase 5, sequence (Q00535 whole entry): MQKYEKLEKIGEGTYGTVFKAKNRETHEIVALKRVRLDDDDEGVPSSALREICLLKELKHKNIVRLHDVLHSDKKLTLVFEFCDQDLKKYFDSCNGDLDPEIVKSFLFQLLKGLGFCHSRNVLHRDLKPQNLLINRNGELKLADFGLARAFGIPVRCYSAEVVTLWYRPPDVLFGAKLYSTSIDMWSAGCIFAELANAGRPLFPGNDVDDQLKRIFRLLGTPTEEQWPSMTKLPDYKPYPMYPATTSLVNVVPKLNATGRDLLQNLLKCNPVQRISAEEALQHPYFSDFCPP
Cyclin-dependent kinase 1/cyclin B1, sequence (P06493 whole entry): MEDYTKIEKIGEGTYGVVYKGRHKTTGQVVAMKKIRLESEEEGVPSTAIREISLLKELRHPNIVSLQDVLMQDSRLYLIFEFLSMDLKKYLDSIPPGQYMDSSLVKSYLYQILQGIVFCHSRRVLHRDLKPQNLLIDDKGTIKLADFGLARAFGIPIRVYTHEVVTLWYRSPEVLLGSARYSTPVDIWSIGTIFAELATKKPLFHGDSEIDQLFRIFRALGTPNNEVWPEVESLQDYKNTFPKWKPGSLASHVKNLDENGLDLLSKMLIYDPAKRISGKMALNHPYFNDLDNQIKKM
Cyclin-dependent kinase 1/cyclin B1, sequence (P14635 whole entry, further chain): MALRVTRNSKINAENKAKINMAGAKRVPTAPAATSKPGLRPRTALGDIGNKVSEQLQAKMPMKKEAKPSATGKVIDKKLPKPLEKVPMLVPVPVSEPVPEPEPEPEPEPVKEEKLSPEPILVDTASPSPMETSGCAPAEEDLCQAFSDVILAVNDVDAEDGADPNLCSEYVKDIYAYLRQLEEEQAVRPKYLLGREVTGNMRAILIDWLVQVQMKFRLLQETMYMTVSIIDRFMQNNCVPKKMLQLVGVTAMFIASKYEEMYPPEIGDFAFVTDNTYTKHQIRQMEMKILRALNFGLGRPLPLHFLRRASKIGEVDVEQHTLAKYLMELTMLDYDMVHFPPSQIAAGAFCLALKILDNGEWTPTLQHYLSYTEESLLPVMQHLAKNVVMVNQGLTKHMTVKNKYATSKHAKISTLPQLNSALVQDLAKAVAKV

Row | SMILES | pIC50 [1] | pIC50 [2] | pIC50 [3] | pIC50 [4]
1 | O=c1[nH]c2[nH]cc(-c3ccc(Cl)cc3)c2n2cccc12 | < 4.30 | < 4.30 | – | –
2 | O=c1[nH]c2occ(-c3ccc(Cl)c(Cl)c3)c2n2cccc12 | < 4.30 | < 4.30 | – | –
3 | O=c1[nH]c2occ(-c3ccc(F)cc3)c2n2cccc12 | < 4.30 | < 4.30 | – | –
4 | COc1ccc(-c2coc3[nH]c(=O)c4cccn4c23)cc1OC | < 4.30 | < 4.30 | – | –
5 | COc1ccc(-c2coc3[nH]c(=O)c4cccn4c23)cc1 | < 4.30 | < 4.30 | – | –
6 | O=c1[nH]c2occ(-c3ccc(Br)cc3)c2n2cccc12 | < 4.30 | < 4.30 | – | –
7 | Cc1ccc(-c2coc3[nH]c(=O)c4cccn4c23)cc1 | < 4.30 | < 4.30 | – | –

The next lines start with the values.

Row | pIC50 [1] | pIC50 [2] | pIC50 [3] | pIC50 [4] | SMILES
8 | 4.77 | 4.85 | 5.05 | – | COc1ccc(-c2c[nH]c3c2-n2cccc2/C3=N/O)cc1OCc1ccccc1
9 | 4.96 | 4.52 | 4.66 | – | COc1ccc(-c2c[nH]c3c2-n2cccc2C3=O)cc1O
10 | < 4.30 | < 4.30 | < 4.30 | – | COc1ccc(-c2coc3c2-n2cccc2C3=O)cc1OC
11 | < 4.30 | < 4.30 | < 4.30 | – | O=C1c2[nH]cc(-c3ccc(Cl)cc3)c2-n2cccc21
12 | < 4.30 | – | < 4.30 | – | COc1ccc(-c2csc3c2-n2cccc2C3=O)cc1OCc1ccccc1
13 | – | – | 5.26 | 5.54 | COc1ccc(-c2csc3c2-n2cccc2C3=O)cc1O
14 | < 4.30 | < 4.30 | – | – | COc1ccc(-c2c[nH]c3[nH]c(=O)c4cccn4c23)cc1OC
15 | < 4.30 | < 4.30 | < 4.30 | – | COc1ccc(-c2c[nH]c3c2-n2cccc2C3=O)cc1OCc1ccccc1
16 | < 4.30 | < 4.30 | – | – | COc1ccc(-c2c[nH]c3c2-n2cccc2C3=O)cc1OC
17 | 5.26 | 5.49 | 5.42 | – | COc1ccc(-c2c[nH]c3c2-n2cccc2/C3=N/O)cc1O
